Test results reported in patent US20250115598A1 (Anaxis Pharma Pty Ltd, priority 2021, published 2025).

Legend:
human MLKL (full length) = human MLKL (full length) (Homo sapiens (Human), UniProt Q8NB16); experiment: KINOMEscan binding assay, human MLKL (full length); details: KINOMEscan, Table 21; read-out: Human MLKL (full-length) (KD)
Summary of the method: (§1)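 Tagged kinase + immobilized ligand beads + compound; eluted kinase quantified by qPCR. Kinase source: T7 phage lysate (BL21-derived E. coli, 32 °C) or HEK-293 with DNA tag. 11-pt 3-fold series, 1% DMSO, top 30,000 nM (most). Hill fit, slope −1 → Kd.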

human RIPK1 = human RIPK1 (Homo sapiens (Human), UniProt Q13546); experiment: KINOMEscan binding assay, human RIPK1; details: Table 21
Summary of the method: as §1

human RIPK3 = human RIPK3 (Homo sapiens (Human), UniProt Q9Y572); experiment: KINOMEscan binding assay, human RIPK3; details: Table 21
Summary of the method: as §1

[1] = test system: Immortalised Mouse Dermal Fibroblasts (MDFs); experiment: Cellular assay: inhibition of TSI induced necroptosis, CellTitre-Glo viability; details: Mus musculus, Fibroblast; MDF, 3 hours TSI cocktail, Table 24; read-out: Inhibition of TSI-induced necroptosis (IC50 cell-based assay) in MDF
Description: Cellular Assay: Screening Compounds for Inhibition of TSI Induced Necroptosis in, 384 Well Plate Format.
• Cell Line ID: Immortalised Mouse Dermal Fibroblasts (MDFs). • Cell Concentration (cells/well): Final cell density is 2200 cells per well. • Cell growth medium: DMEM medium+7.4% Fetal Bovine Serum (FBS). Cells are cultured in Corning 150 cm^2 tissue culture flasks with vented caps at 37° C./10% CO2. • Incubation: Plates were incubated for 30 minutes following addition of compounds and then 3 hours incubation with death stimuli (TSI cocktail) at 37° C./10% CO2 in a humidified incubator. • Compound concentration: 36 μM starting concentration, 1:3 dilution, 10 point • DMSO final concentration (% v/v): 0.3%. Compounds in TSI Cocktail (T: TNF; S: Smac Mimetic; I: IDN-6556) and their Final Concentrations: • rhTNF (100 ng/ml) • Compound a (500 nM)—Smac Mimetic, Tetralogic and SYNthesis Med Chem • IDN-6556 (10 μM)—Selleckchem (S7775)
The cellular assay was carried out according to the following steps: • 1. Each well was prepared by sequential addition of: • a. 40 μL of cell suspension (5.5×10^4 cells/mL) was added to each well to provide a final cell concentration of 2,200 cells per well. • b. After 24 hours, DMSO (control; columns 1-2 and 23-24) or compound in DMSO—addition was performed using acoustic transfer of nL volumes of stock compound to give final test concentrations of 36, 12, 4, 1.3, 0.44, 0.148, 0.049, 0.016, 0.005 and 0.002 μM. All wells were backfilled with DMSO to a final total volume in the well of 100 nL. • c. Following compound/DMSO addition in step (b), Plates were incubated for 30 minutes at 37° C./10% CO2 in a humidified incubator and then 10 μL of 5×TSI cocktail (except to positive controls; columns 2 and 24) was added to each well. • 2. After 3 hours, plate was removed from the 37° C. incubator and equilibrated to room temperature for 15 minutes. • 3. 15 μL of room temperatured CellTitre-Glo2™ (Promega™) was added to each well. • 4. Shook plates for 2 minutes (˜600 rpm) and incubated at room temperature for 15 minutes to allow signal to stabilise. • 5. Read luminescence readout on a plate reader.
Percent viability was calculated for each compound according to equation (2):
[formula] • Wherein RawData is the readout of any cell containing a compound of the invention.
TA is the total activity provided by the luminescence readout from DMSO only wells (columns 2 and 24)=100% viability.
NSA is the non-specific activity provided by DMSO+TSI wells (columns 1 and 23)=0% viability • Curve fitting: 10-point titration curves are fitted with the 4-parameter logistic nonlinear regression model and the IC50 reported is the inflection point of the curve • Analysis: Data was loaded into Dotmatics™ and visualised using the Tibco@ • Spotfire™ software. 10 point titration curves were fitted with the 4 parameter logistic nonlinear regression model and the IC50 reported reflect the inflection point of the curve for curve fitting.
Assay involving the TSI cocktail (T: TNF; S: Smac mimetic; I: IDN-6556): TSI treatment ensures that cells specifically undergo necroptotic cell death. TNF activates the TNF receptor, Smac mimetic directs the signal away from proinflammatory signaling and toward the RIPK1/RIPK3-mediated cell death pathways, and IDN-6556 (Caspase inhibitor) ensures that the apoptotic response is blocked leaving only the programmed necrosis response. The compounds' activity (solution in DMSO) tested in this TSI-induced assay was evaluated by determining the number of viable cells in culture by measuring the amount of ATP present as measured by CelltiterGlo.

endogenous MLKL in MDF = endogenous MLKL in MDF (Mus musculus (Mouse), UniProt Q9D2Y4); experiment: Degradation assay: endogenous MLKL in MDF (western blot); details: MDF cells, 24 h incubation with compound, MLKL adjusted for loading with GAPDH, normalized to DMSO only control, read-out: Degradation of endogenous MLKL in MDF (DC50 cell-based assay)
Description: Degradation Assay: Screening Compounds Procedure to Evaluate the Activity of Compounds in Degrading Endogenous MLKL in Human and Mouse Cell
The mouse dermal fibroblast (MDF) cell line was seeded the day before the experiment in a 24-well plate at a cell density of […] per well in a volume of 0.5 mL per well and left to attach overnight. The human monocyte cell line (U937) was seeded on the day of the experiment in a 24-well plate at a cell density of […] per well in a volume of 0.5 mL per well.
The compound was diluted in DMSO with a starting concentration of 10 mM and titrated stepwise with a dilution of 1:5. 0.5 μL of the compound dilution was added to the appropriate well to achieve a final concentration of 10; 2; 0.4; 0.08 and 0.016 μM. A DMSO only well was included as control.
The cells were incubated for 24 h in the presence of the compound at 37° C. and 10% CO2.
After the 24 h incubation period, the medium was removed and cells washed with 0.5 mL PBS. The cells were then lysed directly in 60 μL of 1×SDS gel loading buffer.
The cell lysate was heat-denatured at […] for 10 min. 10 μL of lysate per well were run on 18-well 4-15% Criterion TGX stain free gels (BIO-RAD). The proteins were then transferred onto nitrocellulose membrane with a wet transfer protocol in the Criterion Blotter (BIO-RAD).
Membranes were blocked with 5% skim milk in TBST. Primary antibody against MLKL (clone 3H1, MABC604 Merck) was used at 1:2000 dilution in TBST with 1% BSA and left shaking over night at 4° C. After washes with TBST, the membranes were incubated with goat anti-rat IgG HRP-conjugated antibody (Southern Biotech) in 1% skim milk TBST at 1:10000 dilution for 1 h at room temperature. After TBST washes the bands were imaged on the ChemiDoc MP Imaging System (BIO-RAD) with Immobilion Western Chemiluminescent HRP Substrate Forte (Millipore). The loading control GAPDH was probed for with rabbit anti-GAPDH (CST 14C10) at 1:2000 dilution in 1% BSA TBST over night at 4° C. TBST washes were followed by incubation with goat anti-rabbit IgG HRP-conjugated antibody (Southern Biotech) in 1% skim milk TBST at 1:10000 dilution for 1 h at room temperature followed by TBST washes. The signal was detected as described above.
The band intensity was measured in the ImageLab Software (BIO-RAD) and the MLKL values adjusted for loading with GAPDH. The percentage of degradation was calculated by normalizing the compound treated values to the DMSO only control.

Sequence of endogenous MLKL in MDF (Q9D2Y4 whole entry): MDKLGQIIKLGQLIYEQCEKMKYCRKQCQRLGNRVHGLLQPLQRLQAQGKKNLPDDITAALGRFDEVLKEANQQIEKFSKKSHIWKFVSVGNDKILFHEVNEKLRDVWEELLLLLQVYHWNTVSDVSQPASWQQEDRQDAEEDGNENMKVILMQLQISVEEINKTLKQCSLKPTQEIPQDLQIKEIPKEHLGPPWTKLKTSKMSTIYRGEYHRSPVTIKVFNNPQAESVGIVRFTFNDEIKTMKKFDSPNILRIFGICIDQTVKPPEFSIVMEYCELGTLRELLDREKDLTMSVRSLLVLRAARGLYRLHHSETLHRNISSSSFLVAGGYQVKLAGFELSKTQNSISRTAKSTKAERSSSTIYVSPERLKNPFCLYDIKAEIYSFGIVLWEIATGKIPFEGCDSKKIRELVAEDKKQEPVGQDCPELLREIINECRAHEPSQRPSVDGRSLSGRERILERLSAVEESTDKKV
Sequence of human RIPK1 (Q13546 whole entry): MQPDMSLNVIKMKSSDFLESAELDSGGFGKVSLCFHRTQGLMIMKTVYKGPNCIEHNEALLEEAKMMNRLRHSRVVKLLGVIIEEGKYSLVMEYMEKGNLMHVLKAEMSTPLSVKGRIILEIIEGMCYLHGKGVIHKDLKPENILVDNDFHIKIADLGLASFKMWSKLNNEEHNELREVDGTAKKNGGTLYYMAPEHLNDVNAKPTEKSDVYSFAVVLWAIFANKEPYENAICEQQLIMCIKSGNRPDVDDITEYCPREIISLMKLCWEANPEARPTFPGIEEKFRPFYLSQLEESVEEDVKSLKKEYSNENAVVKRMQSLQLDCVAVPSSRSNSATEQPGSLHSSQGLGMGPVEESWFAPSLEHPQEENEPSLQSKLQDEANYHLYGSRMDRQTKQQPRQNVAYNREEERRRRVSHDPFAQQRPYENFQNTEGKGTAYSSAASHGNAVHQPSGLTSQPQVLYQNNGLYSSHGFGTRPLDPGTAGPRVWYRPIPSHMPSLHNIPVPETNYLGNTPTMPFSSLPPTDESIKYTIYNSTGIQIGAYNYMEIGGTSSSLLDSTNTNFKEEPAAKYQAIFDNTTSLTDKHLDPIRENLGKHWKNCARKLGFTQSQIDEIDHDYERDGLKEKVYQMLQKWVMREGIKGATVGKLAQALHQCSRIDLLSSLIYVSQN
Sequence of human MLKL (full length) (Q8NB16 whole entry): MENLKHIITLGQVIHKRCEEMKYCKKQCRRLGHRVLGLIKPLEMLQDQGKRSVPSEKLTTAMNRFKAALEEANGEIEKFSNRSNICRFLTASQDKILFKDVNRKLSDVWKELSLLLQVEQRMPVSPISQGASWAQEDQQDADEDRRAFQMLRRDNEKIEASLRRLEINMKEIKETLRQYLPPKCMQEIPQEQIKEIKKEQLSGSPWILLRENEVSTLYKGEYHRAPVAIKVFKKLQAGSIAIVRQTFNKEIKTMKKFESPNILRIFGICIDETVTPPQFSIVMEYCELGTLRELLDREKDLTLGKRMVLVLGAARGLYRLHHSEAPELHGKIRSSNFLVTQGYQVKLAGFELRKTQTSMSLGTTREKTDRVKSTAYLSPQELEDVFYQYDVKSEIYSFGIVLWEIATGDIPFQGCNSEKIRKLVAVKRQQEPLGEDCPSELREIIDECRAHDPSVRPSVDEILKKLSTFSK
Sequence of human RIPK3 (Q9Y572 whole entry): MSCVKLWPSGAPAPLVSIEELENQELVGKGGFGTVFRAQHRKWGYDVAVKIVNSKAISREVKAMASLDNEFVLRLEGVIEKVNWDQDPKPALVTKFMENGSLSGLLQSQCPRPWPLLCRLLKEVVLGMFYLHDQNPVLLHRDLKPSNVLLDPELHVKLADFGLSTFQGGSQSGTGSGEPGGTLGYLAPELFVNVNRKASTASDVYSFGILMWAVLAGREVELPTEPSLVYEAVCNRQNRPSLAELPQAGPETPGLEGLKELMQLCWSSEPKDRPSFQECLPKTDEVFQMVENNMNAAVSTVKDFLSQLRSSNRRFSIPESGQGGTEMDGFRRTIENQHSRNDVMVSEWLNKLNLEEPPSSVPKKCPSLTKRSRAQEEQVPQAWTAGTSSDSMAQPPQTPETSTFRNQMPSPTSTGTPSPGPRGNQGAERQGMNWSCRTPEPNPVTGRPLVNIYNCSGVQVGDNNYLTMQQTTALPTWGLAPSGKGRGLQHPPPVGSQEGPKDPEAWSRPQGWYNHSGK

Row | Compound | Kd (human MLKL (full length)) [nM] | Kd (human RIPK1) [µM] | Kd (human RIPK3) [µM] | DC50 (endogenous MLKL in MDF) [nM] | IC50 [1] [nM]
1 | C[C@H](Oc1cc(-c2nn(C)c3c(-c4cnn(C5CCC(N(C)C)C5)c4)cnc(N)c23)ccc1NS(=O)(=O)C(F)F)c1ccc(F)cc1 (stereo partly drawn) [Compound 168, N-(4-(4-amino-7-(1-(3-(dimethylamino)cyclopentyl)-1H-pyrazol-4-yl)-1-methyl-1H-pyrazolo[4,3-c]pyridin-3-yl)-2-((S)-1-(4-fluorophenyl)ethoxy)phenyl)-1,1-difluoromethanesulfonamide] | < 1 | > 10 | > 10 | – | < 1000
2 | Cc1ncsc1-c1ccc(CNC(=O)[C@@H]2C[C@@H](O)CN2C(=O)[C@@H](NC(=O)CCCCCCC#Cc2cnc(N)c3c(-c4ccc(NS(=O)(=O)C(F)F)c(O[C@@H](C)c5ccc(F)cc5)c4)nn(C)c23)C(C)(C)C)cc1 [Compound 1027, (2S,4R)-1-[(2S)-2-(9-{4-amino-3-[4-(difluoromethanesulfonamido)-3-[(1S)-1-(4-fluorophenyl)ethoxy]phenyl]-1-methyl-1H-pyrazolo[4,3-c]pyridin-7-yl}non-8-ynamido)-3,3-dimethylbutanoyl]-4-hydroxy-N-{[4-(4-methyl-1,3-thiazol-5-yl)phenyl]methyl}pyrrolidine-2-carboxamide] | – | – | – | 1000 to 10000 | –
3 | Cc1ncsc1-c1ccc(CNC(=O)[C@@H]2C[C@@H](O)CN2C(=O)[C@@H](NC(=O)CCCCCCCCC#Cc2cnc(N)c3c(-c4ccc(NS(=O)(=O)C(F)F)c(O[C@@H](C)c5ccc(F)cc5)c4)nn(C)c23)C(C)(C)C)cc1 [Compound 1028, (2S,4R)-1-[(2S)-2-(11-{4-amino-3-[4-(difluoromethanesulfonamido)-3-[(1S)-1-(4-fluorophenyl)ethoxy]phenyl]-1-methyl-1H-pyrazolo[4,3-c]pyridin-7-yl}undec-10-ynamido)-3,3-dimethylbutanoyl]-4-hydroxy-N-{[4-(4-methyl-1,3-thiazol-5-yl)phenyl]methyl}pyrrolidine-2-carboxamide] | – | – | – | 1000 to 10000 | –
4 | C[C@H](Oc1cc(-c2nn(C)c3c(-c4cnn(CCCCCCCOc5cccc6c5C(=O)N(C5CCC(=O)N(C)C5=O)C6=O)c4)cnc(N)c23)ccc1NS(=O)(=O)C(F)F)c1ccc(F)cc1 (stereo partly drawn) [Compound 1100, N-(4-{4-amino-1-methyl-7-[1-(7-{[2-(1-methyl-2,6-dioxopiperidin-3-yl)-1,3-dioxo-2,3-dihydro-1H-isoindol-4-yl]oxy}heptyl)-1H-pyrazol-4-yl]-1H-pyrazolo[4,3-c]pyridin-3-yl}-2-[(1S)-1-(4-fluorophenyl)ethoxy]phenyl)-1,1-difluoromethanesulfonamide] | – | – | – | < 1000 | –

More lines, main results first:

Row | Kd (human MLKL (full length)) [nM] | Kd (human RIPK1) [µM] | Kd (human RIPK3) [µM] | DC50 (endogenous MLKL in MDF) [nM] | Compound | IC50 [1] [nM]
5 | < 1 | > 10 | > 10 | – | CC(=O)N1CCC(n2cc(-c3cnc(N)c4c(-c5ccc(NS(=O)(=O)C(F)F)c(O[C@@H](C)c6ccc(F)cc6)c5)nn(C)c34)cn2)CC1 [Compound 109, (S)—N-(4-(7-(1-(1-acetylpiperidin-4-yl)-1H-pyrazol-4-yl)-4-amino-1-methyl-1H-pyrazolo[4,3-c]pyridin-3-yl)-2-(1-(4-fluorophenyl)ethoxy)phenyl)-1,1-difluoromethanesulfonamide] | < 1000
6 | – | – | – | < 1000 | C[C@H](Oc1cc(-c2nn(C)c3c(-c4cnn(C5CCN(C(=O)[C@]67C[C@](Nc8cccc9c8C(=O)N(C8CCC(=O)NC8=O)C9=O)(C6)C7)CC5)c4)cnc(N)c23)ccc1NS(=O)(=O)C(F)F)c1ccc(F)cc1 (stereo partly drawn) [Compound 1118, N-[4-(4-amino-7-{1-[1-(3-{[2-(2,6-dioxopiperidin-3-yl)-1,3-dioxo-2,3-dihydro-1H-isoindol-4-yl]amino}bicyclo[1.1.1]pentane-1-carbonyl)piperidin-4-yl]-1H-pyrazol-4-yl}-1-methyl-1H-pyrazolo[4,3-c]pyridin-3-yl)-2-[(1S)-1-(4-fluorophenyl)ethoxy]phenyl]-1,1-difluoromethanesulfonamide] | –
